Test results reported in paper PMC10403513, “Tasmanian devil cathelicidins exhibit anticancer activity against Devil Facial Tumour Disease (DFTD) cells” (Scientific Reports, 2023).
No end group written: not given here.

Experiments:
[1] = tested on: DFT1 1426 cells; assay type: cell-based, Tasmanian devil (Sarcophilus harrisii)
Method: The DFT1 cell line 1426, derived from a primary DFT1 tumour, was obtained from Menzies Institute for Medical Research, University of Tasmania. The cell line was maintained in RPMI 1640 media with 2 mM L-glutamine (Gibco) supplemented with 10% AmnioMax II (Gibco), 10% heat-inactivated foetal bovine serum (FBS) and 1% penicillin/streptomycin (Sigma-Aldrich), in T75 flasks (Nunc) at 35 °C 5% CO2. Cells were passaged using trypsin–EDTA (Sigma-Aldrich) when 90% confluent.
Toxicity of seven Tasmanian devil cathelicidins against DFT1 1426 cells was determined for twofold dilutions from 500 to 15.62 µg/mL, and four different timepoints (12, 18, 24 and 36 h). Confluent DFT1 1426 cells (passage 22) were re-suspended in RPMI 1640 with 10% FBS and 10% AmnioMax II at a concentration of 5 × 10^5 cells/mL, and 100μL seeded into each well of a sterile flat-bottom 96 well plate (Corning), with individual plates for each timepoint (12, 18, 24 and 36 h). All plates were incubated for 24 h at 35 °C 5% CO2 prior to the cytotoxicity test.
At 0 h, 100 μL of each peptide dilution was then added to each plate in quadruplicate for all timepoints (12, 18, 24 and 36 h), resulting in a final peptide concentrations of 500 μg/mL, 250 μg/mL, 125 μg/mL, 62.50 μg/mL, 31.25 μg/mL and 15.62 μg/mL. […] An untreated growth control of RPMI 1640, a positive control of dimethylsulfoxide (DMSO) (15%) and sterility control of RPMI 1640 only (no cells) were also included for each time point.
For the 12 h timepoint, 10% alamarBlue was immediately added to each well of the plate after addition of the peptide. For the remaining timepoints, plates were incubated for an additional 6, 12 or 24 h after addition of the peptides, then 10% alamarBlue added to each well. For all timepoints, after the addition of alamarBlue cells were incubated for a further 12 h, resulting in a total peptide incubation period of 12, 18, 24 and 36 h. Absorbance of alamarBlue for all timepoints was determined at 570 nm and 630 nm on a Biotek 800 TS microplate reader. Cell viability was calculated according to manufacturer’s instructions and expressed as a percentage of cell survival compared to the untreated growth control.
A one-sample, one-tailed t-test was used to test for significant difference in viability between treated cells and the negative growth control. A one sample, two-tailed t-test was also conducted to ensure there was no significant difference in viability between the negative growth control and the cells treated with the solvent only. Statistical analysis was conducted in R (R Development Core Team 2021).

[2] = tested on: DFT1 1426 cells; experiment: RNAseq differential gene expression in peptide-treated DFT1 1426 cells; assay type: cell-based, Tasmanian devil (Sarcophilus harrisii); details: 500 μg/mL, 10 h, n = 3, vs vehicle control
Method: RNAseq was used to characterize the mechanisms underlying the anticancer activity of the peptides. Confluent DFT1 1426 cells (passage number 25) were re-suspended at a concentration of 5 × 10^5 cells/ml and 1 mL seeded into each well of a sterile flat-bottom polystyrene 12-well plate (Corning). Following incubation for 24 h at 35 °C 5% CO2, media was aspirated from the cells and replaced with 500 μL of RPMI 1640 with 2 mM L-glutamine, 10% FBS and 10% AmnioMax II. 500 μL of each 1 mg/mL peptide solution (Saha-CATH1 to 7) was then added to the plate in triplicate, to give a final peptide concentration of 500 μg/mL. […] A vehicle control was also added to the plate in triplicate.
The plate was then incubated for a further 10 h at 35 °C in 5% CO2. This incubation period was selected as the cytotoxicity assay indicated it was sublethal for most of the peptides and would maintain sufficient cell viability to extract intact RNA. Media was then aspirated from the cells, which were washed twice with Dulbecco’s phosphate buffered saline (DPBS) (Sigma-Aldrich).
Total RNA was extracted from each replicate of the peptide-treated and vehicle control cells (n = 3) using the RNeasy mini kit (Qiagen) with cell lysis directly in each well of the 12 well plate. Total RNA was quality assessed using the RNA nano 6000 kit on the Agilent Bioanalyzer with all samples displaying a RIN score between 5 and 9. In total, 24 RNA samples corresponding to three treatments per peptide (Saha-CATH1 to 7) and a vehicle control were submitted to Ramaciotti Centre for Genomics (The University of New South Wales) for sequencing. Illumina TruSeq mRNA libraries were prepared for all samples, which were sequenced as 2 × 150 bp paired-end reads across an SP flowcell on the NovaSeq6000.
Raw reads were quality assessed using FastQC v0.11.8[47], then quality and length trimmed using Trimmomatic v0.39[48] using default parameters. Trimmed reads for each treatment (n = 3) and the control (n = 3) were aligned to the Tasmanian devil reference genome v7.0 (NCBI: GCA_000189315.1[49] using STAR v2.7.8a[50]. Alignments for each treatment were summarized into gene counts using featureCounts in the subread package v1.5.1[51].
Gene counts were used as input for differential expression analysis in R[52]. Genes with less than 50 counts across all samples were removed from the analysis, as these were unlikely to be biologically relevant and lacked sufficient statistical power. Firstly, the data was normalized by trimmed mean of M values (TMM) using edgeR v3.32.1[53] to account for any composition bias between libraries and to give an effective library size for downstream analysis. Multidimensional scaling (MDS) was used to check for variation between treatments using limma v3.36.0[54]. Expression levels were then normalized using upper-quartile normalization in EDAseq v2.24.0[55] to account for differences in distribution between lanes, such as sequencing depth. Differential expression analysis was performed using voom in the limma v3.36.0 package.
(§1) Over-representation analysis of Biological Processes was conducted in clusterProfiler v3.18.1[57]. Statistical significance was adjusted for multiple comparisons using the Benjamini–Hochberg method, and terms were considered significant when p-adj < 0.05. To remove general terms, gene sets larger than 200 were removed, and the simplify function was used to remove redundant GO terms. Further pathway analysis was conducted in IPA (Qiagen)[58], using mammal as the species type and nervous system for the tissue/cell type.

[3] = tested on: DFT1 1426 cells; experiment: Ingenuity Pathway Analysis (canonical pathways) of DE genes in treated DFT1 1426 cells; assay type: cell-based, Tasmanian devil (Sarcophilus harrisii); details: DE genes of cells treated with 500 μg/mL for 10 h
Method: as §1

[4] = tested on: human cell line A549; details: 500 µg/mL; cited from earlier work
Method: Here we aimed to identify cathelicidin candidates for future development as anti-DFTD therapeutics. Four Tasmanian devil cathelicidins (Saha-CATH3, 4, 5 and 6) were toxic to DFT1 1426 cells at high concentrations: Saha-CATH3 at concentrations ≥ 62.5 µg/mL; Saha-CATH4 at 500 µg/mL; Saha-CATH5 at concentrations ≥ 125 µg/mL and Saha-CATH6 at concentrations ≥ 250 µg/mL. Previous studies have shown that two of these peptides (Saha-CATH3 and 4) are non-toxic to human cell line A549[44]. The other two (Saha-CATH5 and 6) reduced cell viability at high concentrations (500 µg/mL), resulting in 42% and 5 ...

[5] = tested on: human red blood cells; details: human red blood cells; cited from earlier work
Description: Cathelicidins have been isolated from many vertebrate taxa[34]–[37]. However, they have undergone gene expansion in marsupials due to the need for additional protection of immunologically naïve young during development in the pouch. […] During development within the pouch, young are exposed to diverse microbial flora, some of which are pathogenic. This has likely encouraged the lineage-specific expansion of cathelicidins in marsupials, resulting in mult ...

KRIRFFERIRDRLRDLGNRIKNRIRDFFS [Saha-CATH6]
decrease in cell viability compared to the growth control ([1]; 500 μg/mL, 36 h, DFT1 1426 cells, alamarBlue, quadruplicate): more than 50%
incubation period required before exhibiting a similar level of toxicity to Saha-CATH5 ([1]; 500 μg/mL, DFT1 1426 cells): 18 h
cell viability (% of untreated growth control) ([1]; 500 µg/mL, after 18 h, mean of quadruplicate): 0%
cytotoxic concentration (cell viability reduced by more than 50%) ([1]; 18 h): ≥ 250 µg/mL
concentration toxic to DFT1 1426 cells ([1]; summary in the discussion): ≥ 250 µg/mL
Fold change (FC), ATF3 ([2]; RNAseq): 5.02
Fold change (FC), CHOP (DDIT3) ([2]; RNAseq): 1.91
Fold change (FC), GADD34 (PPP1R15A) ([2]; RNAseq): 2.14
Fold change, gene IL1R1 ([2]; cytokine receptor, RNAseq): 2.29
Fold change, gene IL6R ([2]; cytokine receptor, RNAseq): 1.70
Fold change, gene IL21R ([2]; cytokine receptor, RNAseq): 1.58
Fold change, gene IL6 ([2]; cytokine, RNAseq): 11.14
Fold change, gene MYD88 ([2]; immune signaling, RNAseq): 1.78
percentage of DE genes ([2]; of 15,548 genes): 15.56%
Fold change, gene RUNX1 ([2]; transcription factor, RNAseq): 1.61
IPA z-score, EIF2 signaling [3]: 4.352
IPA z-score, Th17 activation pathway [3]: 2.53
cell survival of human cell line A549 [4]: 59%
concentration at which moderately haemolytic [5]: above 250 μg/mL
